Measured values reported in patent US20240199648A1, “MAP4K1 INHIBITORS” (Blueprint Medicines Corporation, priority 2021, published 2024).

The molecules below were run against T1, MAP4K1 (HPK1) (Homo sapiens, UniProt Q92918) (assay: Inhibition of MAP4K1 biochemical enzymatic activity (EZReader 2 electrophoretic mobility shift assay)). Conditions: HPK1 (Invitrogen), S6K2tide 1.5 μM, 120 min; ATP 26 μM or 1000 μM (not stated which).
T1 construct: purchased Invitrogen
Description: MAP4K1 (HPK1) and relevant off-target enzymatic activity was monitored using the Perkin Elmer electrophoretic mobility shift technology platform—the EZReader 2. […] Within the linear, steady-state phase of the kinase enzymatic reaction, the mixed pool of phosphorylated (product) and non-phosphorylated (substrate) peptides was passed through the microfluidic system of the PerkinElmer EZ Reader 2, under an applied electric potential difference. The presence of the phosphate group on the product peptide provided a difference in mass and charge between that of the substrate peptide, resulting in a separation of the substrate and product pools in the sample (Perrin et al. 2010). As the product and substrate peptide mixture passes the lasers within the instrument, these pools are detected (λex=488 nm, λem=568 nm) and resolved as separate peaks. The ratio between these peaks reflects the activity of the compound at that concentration, in that well, under those conditions.
Inhibitors were dissolved in 100% DMSO at a stock concentration of 10 mM. A 100×, 10-point, 4-fold serial dilution of each inhibitor was created in 100% DMSO either manually or on a Hamilton STAR liquid handler, starting at a relevant concentration, usually 1 mM. A volume of 0.130 μL of each concentration was transferred to the relevant wells of a 384-well plate (Greiner 781 201) in diplicate using a TTPLabtech Mosquito nano-litre dispenser. Using a Multidrop Combi, the remaining constituents of the kinase reaction were added to the 130 nL of dosed compound as follows (see table below for final reaction details):
Enzyme activity assays at the ^APPKM for ATP or 1 mM ATP: In each well of a 384-well plate, 0.1-15 nM of untreated enzyme was incubated in a total of 13 μL of buffer (100 mM HEPES pH 7.5, 0.015% Brij 35, 10 mM MgCl2, 1 mM DTT) with 1.5 μM fluorescent peptid and 20-1000 μM ATP, at 25° C., for 60-180 minutes in the presence or absence of a dosed concentration series of compound (1% DMSO final concentration). The kinase reactions were stopped by the addition of 70 μl of Stop buffer (100 mM HEPES pH 7.5, 0.015% Brij 35, 35 mM EDTA and 0.2% of Coating Reagent 3 (Caliper Lifesciences)). The plates were read on a Caliper EZReader 2 as described above.

T1 sequence (Q92918 whole entry): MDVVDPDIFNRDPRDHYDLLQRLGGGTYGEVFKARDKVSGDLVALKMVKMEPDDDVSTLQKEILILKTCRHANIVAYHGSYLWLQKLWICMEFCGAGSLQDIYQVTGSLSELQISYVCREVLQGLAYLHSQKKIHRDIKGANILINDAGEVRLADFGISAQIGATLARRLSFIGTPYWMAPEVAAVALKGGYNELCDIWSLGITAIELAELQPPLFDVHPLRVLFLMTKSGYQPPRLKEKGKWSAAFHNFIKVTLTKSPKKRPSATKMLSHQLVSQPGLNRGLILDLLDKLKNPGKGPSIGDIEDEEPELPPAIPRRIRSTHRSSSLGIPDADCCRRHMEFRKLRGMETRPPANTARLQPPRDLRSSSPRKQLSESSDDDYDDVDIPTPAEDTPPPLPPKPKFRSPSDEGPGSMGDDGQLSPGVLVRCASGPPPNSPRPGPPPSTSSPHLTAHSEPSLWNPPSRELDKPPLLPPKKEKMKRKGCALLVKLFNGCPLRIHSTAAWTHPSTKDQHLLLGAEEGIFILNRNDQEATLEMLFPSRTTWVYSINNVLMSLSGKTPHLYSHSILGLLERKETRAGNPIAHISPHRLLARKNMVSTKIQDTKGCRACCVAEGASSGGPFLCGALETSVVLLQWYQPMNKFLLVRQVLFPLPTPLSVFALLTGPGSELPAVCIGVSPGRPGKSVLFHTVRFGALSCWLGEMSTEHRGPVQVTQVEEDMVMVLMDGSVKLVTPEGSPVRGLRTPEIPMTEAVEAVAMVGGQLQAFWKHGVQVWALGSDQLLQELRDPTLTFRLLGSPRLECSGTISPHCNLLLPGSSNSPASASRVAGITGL

| IC50 [nM] | SMILES |
| --- | --- |
| 0.15 | CCOC(=O)N1CC(Oc2ncc(C(C)(C)N)c3cc(Nc4ccc5c(n4)[C@@H](C)[C@H](C)OC5=O)ncc23)C1 [Compound 37] |
| 0.12 | C[C@@H]1C[C@@H]1C(=O)N1CC(Oc2ncc(C(C)(C)N)c3cc(Nc4ccc5c(n4)[C@@H](C)[C@H](C)OC5=O)ncc23)C1 [Compound 44] |
| 0.16 | C[C@@H]1OC(=O)c2ccc(Nc3cc4c(C(C)(C)N)cnc(O[C@@H]5CN(C(=O)C6CC6)[C@H]5C)c4cn3)nc2[C@H]1C [Compound 45] |
| 0.23 | C[C@@H]1OC(=O)c2ccc(Nc3cc4c(C(C)(C)N)cnc(OC5CN(C(=O)[C@@H]6C[C@@H]6C)C5)c4cn3)nc2[C@H]1C [Compound 46] |
| 0.18 | C[C@@H]1OC(=O)c2ccc(Nc3cc4c(C(C)(C)N)cnc(OC5CN(C(=O)[C@H]6C[C@@H]6C)C5)c4cn3)nc2[C@H]1C [Compound 47] |
| 0.32 | C[C@@H]1OC(=O)c2ccc(Nc3cc4c(C(C)(C)N)cnc(O[C@H]5CCN(C(=O)C6CC6)C5)c4cn3)nc2[C@H]1C [Compound 50] |
| 0.36 | C[C@@H]1OC(=O)c2ccc(Nc3cc4c(C(C)(C)N)cnc(O[C@@H]5CCN(C(=O)C6CC6)C5)c4cn3)nc2[C@H]1C [Compound 51] |
| 0.18 | C[C@@H]1OC(=O)c2ccc(Nc3cc4c(C(C)(C)N)cnc(OC5CN(C(=O)C6(C)CC6)C5)c4cn3)nc2[C@H]1C [Compound 52] |
| 0.16 | C[C@@H]1OC(=O)c2ccc(Nc3cc4c(C(C)(C)N)cnc(OC5CN(C(=O)C6(O)CC6)C5)c4cn3)nc2[C@H]1C [Compound 55] |
| 0.16 | C[C@@H]1OC(=O)c2ccc(Nc3cc4c(C(C)(C)N)cnc(OC5CN(C(=O)C6(F)CC6)C5)c4cn3)nc2[C@H]1C [Compound 60] |
| 0.16 | C[C@@H]1c2nc(Nc3cc4c(C(C)(C)N)cnc(OC5CN(C(=O)[C@H]6C[C@@H]6C)C5)c4cn3)ccc2C(=O)OC1(C)C [Compound 68] |
| 0.14 | C[C@@H]1OC(=O)c2ccc(Nc3cc4c(C(C)(C)N)cnc(OC5CN(C(=O)[C@H]6CC6(C)C)C5)c4cn3)nc2[C@H]1C [Compound 69] |
| 0.27 | C[C@@H]1c2nc(Nc3cc4c(C(C)(C)N)cnc(OC5CN(C(=O)C6(C)CC6)C5)c4cn3)ccc2C(=O)OC1(C)C [Compound 71] |
| 0.32 | C[C@@H]1OC(=O)c2ccc(Nc3cc4c(C(C)(C)N)cnc(OC5CN(C(=O)[C@H]6CCOC6)C5)c4cn3)nc2[C@H]1C [Compound 73] |
| 0.36 | C[C@@H]1OC(=O)c2ccc(Nc3cc4c(C(C)(C)N)cnc(OC5CN(C(=O)[C@@H]6CCOC6)C5)c4cn3)nc2[C@H]1C [Compound 74] |
| 0.38 | C[C@@H]1OC(=O)c2ccc(Nc3cc4c(C(C)(C)N)cnc(OC5CN(C(=O)[C@H]6CCCO6)C5)c4cn3)nc2[C@H]1C [Compound 75] |
| 0.43 | C[C@@H]1c2nc(Nc3cc4c(C(C)(C)N)cnc(OC5CN(C(=O)C6(O)CC6)C5)c4cn3)ccc2C(=O)OC1(C)C [Compound 78] |
| 0.31 | COC1(C(=O)N2CC(Oc3ncc(C(C)(C)N)c4cc(Nc5ccc6c(n5)[C@@H](C)[C@H](C)OC6=O)ncc34)C2)CC1 [Compound 79] |
| 0.24 | C[C@@H]1OC(=O)c2ccc(Nc3cc4c(C(C)(C)N)cnc(O[C@H]5C[C@@H](C(=O)N6CC(F)C6)C5)c4cn3)nc2[C@H]1C [Compound 84] |
| 0.17 | COC1(C(=O)N2CC(Oc3ncc(C(C)(C)N)c4cc(Nc5ccc6c(n5)[C@@H](C)C(C)(C)OC6=O)ncc34)C2)CC1 [Compound 93] |
| 0.19 | C[C@@H]1OC(=O)c2ccc(Nc3cc4c(C(C)(C)N)cnc(O[C@H]5C[C@@H](C(=O)N6CC(F)(F)C6)C5)c4cn3)nc2[C@H]1C [Compound 98] |
| 0.24 | C[C@@H]1c2nc(Nc3cc4c(C(C)(C)N)cnc(OC5CN(C(=O)C6(C(F)(F)F)CC6)C5)c4cn3)ccc2C(=O)OC1(C)C [Compound 103] |

The next lines start with the molecule.

| SMILES | IC50 [nM] |
| --- | --- |
| COC(=O)N1CC(Oc2ncc(C(C)(C)N)c3cc(Nc4ccc5c(n4)[C@@H](C)C(C)(C)OC5=O)ncc23)C1 [Compound 38] | 0.23 |
| C[C@@H]1c2nc(Nc3cc4c(C(C)(C)N)ccc(OC5CN(C(=O)C6CC6)C5)c4cn3)ccc2C(=O)OC1(C)C [Compound 41] | 0.1 |
| C[C@@H]1c2nc(Nc3cc4c(C(C)(C)N)cnc(NC5CN(C(=O)C6CC6)C5)c4cn3)ccc2C(=O)OC1(C)C [Compound 42] | 0.33 |
| CCC(=O)N1CC(Oc2ncc(C(C)(C)N)c3cc(Nc4ccc5c(n4)C4(CC4)C(C)(C)OC5=O)ncc23)C1 [Compound 43] | 0.22 |
| CC[C@H](N)c1cnc(OC2CN(C(=O)[C@@H]3C[C@@H]3F)C2)c2cnc(Nc3ccc4c(n3)[C@@H](C)[C@H](C)OC4=O)cc12 [Compound 59] | 0.24 |
| COCC(=O)N1CC(Oc2ncc(C(C)(C)N)c3cc(Nc4ccc5c(n4)[C@@H](C)C(C)(C)OC5=O)ncc23)C1 [Compound 61] | 0.21 |
| C[C@@H]1C[C@@H]1C(=O)N1CC(Oc2ncc(C(C)(C)N)c3cc(Nc4ccc5c(n4)[C@@H](C)C(C)(C)OC5=O)ncc23)C1 [Compound 64] | 0.16 |
| C[C@@H]1C[C@H]1C(=O)N1CC(Oc2ncc(C(C)(C)N)c3cc(Nc4ccc5c(n4)[C@@H](C)C(C)(C)OC5=O)ncc23)C1 [Compound 66] | 0.22 |
| C[C@@H]1c2nc(Nc3cc4c(C(C)(C)N)cnc(OC5CN(C(=O)[C@@H]6C[C@@H]6C)C5)c4cn3)ccc2C(=O)OC1(C)C [Compound 67] | 0.2 |
| COC[C@@](C)(N)c1cnc(O[C@H]2CN(C(=O)C3CC3)[C@@H]2C)c2cnc(Nc3ccc4c(n3)[C@@H](C)[C@H](C)OC4=O)cc12 [Compound 89] | 0.35 |
| C[C@@H]1c2nc(Nc3cc4c(C(C)(C)N)cnc(OC5CN(C(=O)[C@@H]6CCCO6)C5)c4cn3)ccc2C(=O)OC1(C)C [Compound 90] | 0.18 |
| COC[C@@](C)(N)c1cnc(O[C@@H]2CN(C(=O)C3CC3)[C@H]2C)c2cnc(Nc3ccc4c(n3)[C@@H](C)[C@H](C)OC4=O)cc12 [Compound 91] | 0.31 |
| C[C@@H]1c2nc(Nc3cc4c(C(C)(C)N)cnc(O[C@H]5C[C@@H](C(=O)N6CC(F)C6)C5)c4cn3)ccc2C(=O)OC1(C)C [Compound 94] | 0.14 |
| CC(=O)N1CC(Oc2ncc(C(C)(C)N)c3cc(Nc4ccc5c(n4)CCOC5=O)ncc23)C1 [Compound 108] | 2.86 |
| CC(=O)N1CC(Oc2ncc(C(C)(C)N)c3cc(Nc4ccc5c(n4)C(C)(C)OC5=O)ncc23)C1 [Compound 109] | 4 |
| CC(=O)N1CC(Oc2ncc(C(C)(C)N)c3cc(Nc4ccc5c(n4)C(C)(C)COC5=O)ncc23)C1 [Compound 110] | 0.62 |
| C[C@@H]1c2nc(Nc3cc4c(C(C)(C)N)ccc(OCCOC(=O)N(C)C)c4cn3)ccc2C(=O)OC1(C)C [Compound 114] | 0.07 |
| CC(=O)N1CCC[C@@H]1COc1ncc(C(C)(C)N)c2cc(Nc3ccc4c(n3)[C@@H](C)C(C)(C)OC4=O)ncc12 [Compound 116] | 1.13 |
| CC(=O)N1CCC[C@H]1COc1ncc(C(C)(C)N)c2cc(Nc3ccc4c(n3)[C@@H](C)C(C)(C)OC4=O)ncc12 [Compound 117] | 2.02 |
| COC[C@@](C)(N)c1cnc(O[C@H]2C[C@H](C(=O)N(C)C)C2)c2cnc(Nc3ccc4c(n3)[C@@H](C)[C@H](C)OC4=O)cc12 [Compound 124] | 0.26 |
